Reference: publication PMC8357188 (Nature biomedical engineering, 2020)

Test system: porcine jejunum tissue
Test: GI-TRIS intestinal transport experiments
Format: in vitro ADME, pig

## carbetocin acetate
  increase in intestinal transport when formulated with polyethyleneimine: limited increase
